# Experimental data from patent US20260306506A1, “PYRIDO[4,3-D]PYRIMIDINE COMPOUNDS” (Pfizer Inc., priority 2023, published 2026).
# How the values were obtained:
# WT GTPγS KRAS (aa1-185) = molecular target: T1, WT GTPγS KRAS (aa1-185) (Homo sapiens, UniProt P01116); assay: SPR binding (Biacore), GTPγS-loaded WT KRAS; conditions: for Kd: 10° C., geometric mean when n>1, read-out: KRasGTPgS SPR KD; for KRasGTPgS SPR t1/2: dissociative half-life, t1/2=0.693/koff
# T1 construct: wild-type (WT) KRASGDP (aa1-185); made in house
# Text: (§1) No additional regeneration was used.
# (§2) Compound dissociation was monitored for at least 3600 seconds. […] No additional regeneration was used.
# [1] = molecular target: T2, G12D GTPγS KRAS (aa1-185) (Homo sapiens, UniProt P01116, G12D); assay: SPR binding (Biacore), GTPγS-loaded KRAS G12D; conditions: for Kd: 10° C., geometric mean when n>1, read-out: KRasGTPgS G12D SPR KD; for KRasGTPgS G12D SPR t1/2: dissociative half-life, t1/2=0.693/koff
# T2 construct: G12DGDP KRAS (aa1-185); made in house
# Text: as §1, §2
# [2] = molecular target: T3, G12C GTPγS KRAS (aa2-184) (Homo sapiens, UniProt P01116, G12C); assay: SPR binding (Biacore), GTPγS-loaded KRAS G12C; conditions: for Kd: 10° C., geometric mean when n>1, read-out: KRasGTPgS G12C SPR KD; for KRasGTPgS G12C SPR t1/2: dissociative half-life, t1/2=0.693/koff
# T3 construct: G12CGDP KRAS (aa2-184); made in house
# Text: as §1, §2
# [3] = molecular target: T4, G12V GTPγS KRAS (aa2-184) (Homo sapiens, UniProt P01116, G12V); assay: SPR binding (Biacore), GTPγS-loaded KRAS G12V; conditions: for Kd: 10° C., geometric mean when n>1, read-out: KRasGTPgS G12V SPR KD; for KRasGTPgS G12V SPR t1/2: dissociative half-life, t1/2=0.693/koff
# T4 construct: G12VGDP KRAS (aa2-184); made in house
# Text: as §1, §2
# [4] = test system: PANC08.13 (pancreatic cancer cell line); assay: KRAS Cell Titer Glo (CTG) viability assay, Panc08.13; type: cell-based; conditions: Homo sapiens, PANC-08-13, 168 h, Panc08.13, 7-day; geometric mean when n>1
# Text: (§3) The CellTiter-Glo® (CTG) Luminescent Cell Viability Assay is a homogeneous method of determining the number of viable cells in culture based on quantitation of the ATP present, an indicator of metabolically active cells. The CTG is designed for use with multi-well formats, making it ideal for automated high-throughput screening (HTS), cell proliferation and cytotoxicity assays. The homogeneous assay procedure involves adding the single reagent (CellTiter-Glo® Reagent) directly to cells cultured in serum-supplemented medium. Cell washing, removal of medium and multiple pipetting steps are not required. The system detects as few as 15 cells per well in a 384-well format in 10 minutes after adding reagent and mixing.
# (§4) Cells are grown in humidified 5% CO2 incubator at 37° C. using the culture conditions outlined below. All cell culture media reagents were purchased from Gibco. Cell lines purchased from ATCC: H358 (non-small cell lung cancer cell line), SW620 (colorectal cancer cell line), PANC08.13 (RPM11640+10% FBS+10 units/ml Insulin, pancreatic cancer cell line). Test and control compounds are dispensed as nanoliter drops according to desired final concentrations in 0.1% DMSO using Echo Acoustic Dispenser onto 384 assay plates (Corning, Cat #3764) prior to cell seeding. Cells were seeded in 40 μL volume per well at the following cell densities (cells per well): H358 (300), SW620 (750), PANC 08.13 (600). Cells are incubated in the presence of compound for 7-days. Viability is determined on Day 7 using CellTiter-Glo® (CTG) Luminescent Cell Viability Assay (Promega). CTG is added to a final volume of 20 μl per well and incubated at room temperature for 15 minutes before luminescence is captured using an EnVision Reader with LUM384 US protocol. Data is analyzed using Activity Base to determine compound response and will be represented either as a percent effect (PCTEFF) or percent control (PCTOCTL) as described: Zero percent effect control (ZPE) (Negative control)—100% DMSO. Hundred percent effect (HPE) (Positive control)—1 μM Trametinib (GSK1120212, MEK inhibitor) (4 nl of 10 mM and 36 nl of DMSO per well). The following equations/nomenclature are used (% Effect; PCTEFF) and (% of Control; PCTOCTL): PCTEFF: 100*(Raw_Data_Value−HPE/ZPE−HPE), PCTOCTL: 100*Raw_Data_Value/User_Defined_Array), where the User_Defined_Array is either summarized HPE or ZPE.
# [5] = test system: H358 (non-small cell lung cancer cell line); assay: KRAS Cell Titer Glo (CTG) viability assay, H358; type: cell-based; conditions: Homo sapiens, NCI-H358, 168 h, H358, 7-day; geometric mean when n>1
# Text: as §3, §4
# [6] = test system: SW620 (colorectal cancer cell line); assay: KRAS Cell Titer Glo (CTG) viability assay, SW620; type: cell-based; conditions: Homo sapiens, SW-620, 168 h, SW620, 7-day; geometric mean when n>1
# Text: as §3, §4
# [7] = test system: KRAS G12C, KRAS G12D, and KRAS G12V receptors; assay: SPR binding, summary statement for KRAS mutants; conditions: alkylidenyl and/or haloalkylidenyl on R^1; statement in words
# Text: as §1, §2
# [8] = test system: pancreatic cancer, non-small cell lung cancer, and colorectal cancer; assay: CTG assay, summary statement for cancer cell lines; type: cell-based; conditions: alkylidenyl and/or haloalkylidenyl on R^1; statement in words
# Text: as §3
# Cells are grown in humidified 5% CO2 incubator at 37° C. using the culture conditions outlined below. All cell culture media reagents were purchased from Gibco. […] Viability is determined on Day 7 using CellTiter-Glo® (CTG) Luminescent Cell Viability Assay (Promega). CTG is added to a final volume of 20 μl per well and incubated at room temperature for 15 minutes before luminescence is captured using an EnVision Reader with LUM384 US protocol. Data is analyzed using Activity Base to determine compound response and will be represented either as a percent effect (PCTEFF) or percent control (PCTOCTL) as described: Zero percent effect control (ZPE) (Negative control)—100% DMSO. […]
# [9] = molecular target: T5, wild-type (WT) KRAS GDP (aa1-185) (Homo sapiens, UniProt P01116); assay: SPR binding (Biacore), GDP-loaded WT KRAS; conditions: 10° C., geometric mean when n>1
# T5 construct: wild-type (WT) KRASGDP (aa1-185); made in house
# Text: as §1, §2
# G12D GDP KRAS (aa1-185) = G12D GDP KRAS (aa1-185) (Homo sapiens, UniProt P01116, G12D); assay: biochemical
# Procedure: (§5) The binding affinity and kinetics were measured by Surface Plasmon Resonance (SPR) using Biacore 8K or 8K+ (Cytiva, Marlborough, MA) instruments. Recombinant, C-terminal site-specific biotinylated, wild-type (WT) KRASGDP (aa1-185), G12DGDP KRAS (aa1-185), G12CGDP KRAS (aa2-184), G12VGDP KRAS (aa2-184), WT HRASGDP (aa2-184) and WT NRASGDP (aa2-185) proteins were purified in presence of 1 μM GDP. The GDP-loaded KRAS proteins then went through nucleotide exchange with GTPγS (a non-hydrolysable analog of GTP) in the presence of alkaline phosphatase beads to obtain WTGTPγS KRAS (aa1-185), G12DGTPγS KRAS (aa1-185), G12CGTPγS KRAS (aa2-184), G12VGTPγS KRAS (aa2-184), WT HRASGTPγS (aa2-184) and WT NRASGTPγS (aa2-185). Binding measurements were performed parallelly in sets of either WT/G12D/G12C/G12V KRAS or WT K/H/N RAS proteins in GDP- and/or GTPγS-loaded forms, respectively.
# (§6) Biacore instrument was desorbed and docked with a Series S Sensor Chip SA. […] Compound binding kinetics were measured in either multi-cycle or single-cycle kinetic format.
# (§7) A 2-fold, 10-point serial dilution of test compounds was set-up in a 96-well microplate (Greiner; Cat #650101) with a top concentration of either 10 μM or 100 μM. Binding kinetics was measured at 10° C. by injecting serial dilution of compounds onto both reference and RAS immobilized channels at a flow rate of 100 μL/min and association time of 90 seconds. Compound dissociation was monitored for at least 400 seconds during each cycle. […]
# (§8) A 3-fold, 6-point serial dilution of compounds was set-up in a deep 96-well microplate (Greiner Bio; Cat #780201) with the highest concentration of 1 μM (concentration range: 0.004-1 μM). Binding kinetics was measured at 10° C. by injecting serial dilutions of compounds in increasing order onto reference as well as RAS immobilized channels at a flow rate of 100 μL/min and association time of 120 seconds. Compound dissociation was monitored for at least 3600 seconds. […]
# (§9) Both MCK and SCK data were processed and analyzed using Biacore Insight evaluation software (Cytiva, Marlborough, MA)). […]
# G12C GDP KRAS (aa2-184) = G12C GDP KRAS (aa2-184) (Homo sapiens, UniProt P01116, G12C); assay: biochemical
# Procedure: as §5, §6, §7, §8, §9
# G12V GDP KRAS (aa2-184) = G12V GDP KRAS (aa2-184) (Homo sapiens, UniProt P01116, G12V); assay: biochemical
# Procedure: as §5, §6, §7, §8, §9
Kd (WT GTPγS KRAS (aa1-185)) [nM],KRasGTPgS SPR t1/2 (WT GTPγS KRAS (aa1-185)) [h],Kd [1] [nM],KRasGTPgS G12D SPR t1/2 [1] [h],Kd [2] [nM],KRasGTPgS G12C SPR t1/2 [2] [h],Kd [3] [nM],KRasGTPgS G12V SPR t1/2 [3] [h],IC50 [4] [nM],IC50 [5] [nM],IC50 [6] [nM],binding affinities [7],Kd [9] [nM],Kd (G12D GDP KRAS (aa1-185)) [nM],Kd (G12C GDP KRAS (aa2-184)) [nM],Kd (G12V GDP KRAS (aa2-184)) [nM],Compound,cellular activities against certain tumors [8]
< 0.0106,>192.7,< 0.0061,>192.7,< 0.0145,>192.7,< 0.0097,>192.7,< 0.5,1.2,2.3,may enhance,,,,,"C#Cc1c(F)ccc2cc(O)cc(-c3nc4c5c(nc(OC[C@@]67CCCN6C/C(=C/F)C7)nc5c3F)N3CCCOC[C@H]3CO4)c12 [Example 34, 5-ethynyl-6-fluoro-4-[(8aS)-4-fluoro-2-{[(2E,7aS)-2-(fluoromethylidene)tetrahydro-1H-pyrrolizin-7a(5H)-yl]methoxy}-8a,9,12,13-tetrahydro-8H,11H-7,10-dioxa-1,3,6,13a-tetraazanaphtho[1,8-ab]heptalen-5-yl]naphthalen-2-ol]",may enhance
0.475,6.0,0.404,3.6,0.372,11.0,0.316,8.9,2.7,13.1,18.7,,0.04,0.289,0.067,0.286,"C#Cc1c(F)ccc2cc(O)cc(-c3nc4c5c(nc(OC[C@@]67CCCN6CC(=C)C7)nc5c3F)N3CCCC[C@H]3CO4)c12 [Example 36, 5-ethynyl-6-fluoro-4-[(8aS)-4-fluoro-2-{[(7aS)-2-methylidenetetrahydro-1H-pyrrolizin-7a(5H)-yl]methoxy}-8,8a,9,10,11,12-hexahydro-7-oxa-1,3,6,12a-tetraazabenzo[4,5]cyclohepta[1,2,3-de]naphthalen-5-yl]naphthalen-2-ol]",
3.5,0.3,1.27,0.4,3.02,0.4,2.07,0.4,18.3,40.5,138,,0.015,0.018,0.01,0.056,"C#Cc1c(F)ccc2cc(O)cc(-c3nc4c5c(nc(OC[C@@]67CCCN6CC(=C)C7)nc5c3F)N(CC)CCO4)c12 [Example 37, 4-(10-ethyl-4-fluoro-2-{[(7aS)-2-methylidenetetrahydro-1H-pyrrolizin-7a(5H)-yl]methoxy}-9,10-dihydro-8H-7-oxa-1,3,6,10-tetraazacyclohepta[1,2,3-de]naphthalen-5-yl)-5-ethynyl-6-fluoronaphthalen-2-ol]",
